Usually IC50 stands for the concentration that inhibits the measured activity by half.

Data set [1] relates to AC3-TGL cells. Nature of the data set: human SCLC xenograft model, Example 17. Type of data set: in vivo. As to conditions: for tumor growth kinetics at the primary site of injection: all doses. The protocol:
Evaluation of the anti-metastatic activity of ME (19) and CME (25) in a human SCLC xenograft model. These cells, in primary and subsequent in vivo passages in NOD/SCID mice, tend to form liver metastases. The tumor cells were stably transduced with a triple-fusion protein reporter construct (AC3-TGL), and then transplanted by subcutaneous injection with matrigel into NOD/SCID IL2R gamma null (NSG) mice.
Starting 1 day prior to the inoculation of tumor cells, groups of mice were treated with ME at doses of 10 mg/kg, 40 mg/kg, or 200 mg/kg, or with CME at 12 mg/kg or 49 mg/kg (note: dosage levels were adjusted to account for differences in molecular weight: 1 mg ME=1.2 mg CME). Control mice were treated with DMSO vehicle. The compounds were administered by i.p. injection every three days, from Day −1 to Day 55 following cell injection (n≧5 mice per group). During this time, tumor burden and metastatic spread were monitored by serial non-invasive bioluminescent imaging (BLI) at Days 14, 23, 30, 40, and 50. At Day 55, the mice were sacrificed and the metastatic spread of tumor cells to the lungs, liver, heart, kidneys, and spleen was assessed by ex-vivo BLI on the removed organs.
For the results depicted in FIGS. 7a-b: AC3-TGL cells were transplanted by subcutaneous ventral injection into NSG mice. Xenografted mice were treated with indicated dosages of CME or ME every 3 days starting 1 day prior to the inoculation of tumor cells: ME 10 mg/kg (ME10, n=5), 40 mg/kg (ME40, n=5), 200 mg/kg (ME200, n=5), CME 12 mg/kg (CME12, n=5), 49 mg/kg (CME49, n=5) and DMSO vehicle (control, n=6). At day 55, the mice were sacrificed. Three mice in the ME200 group died before the end of treatment. Tumor metastasis at endpoint: At day 55, mice were analyzed for metastasis by ex vivo BLI quantifying luciferase activity in the excised lungs, (Lu), liver (Li), heard (H), kidneys (K), and the spleen (S). Measurements for each mouse are presented in FIG. 7a (circles), with the average per group (short line) and expressed as photon flux (flux in photon/sec) in log scale. P-values were obtained using two-tailed Mann-Whitney U-test. Each picture is presented with the same settings (4 min exposure, photon signal, color scale from 3.10^4 (min) to 5.10^6 (max)).
Xenograft Model for Example 17: A human primary SCLC xenograft model was developed in 10-14 weeks old male NSG mice. Primary tumor samples were obtained after patient informed consent under an MSKCC IRB approved protocol. AC3-TGL tumor cells growing as clumps were dissociated into a single-cell suspension by Trypsin/Collagenase IV (Invitrogen) sequential treatment. Xenografts were performed by subcutaneous ventral injection of 500 AC3-TGL cells in serum-free medium mixed with Matrigel (Becton Dickinson).
One day prior to the tumor cell injection, mice were pretreated with either: (1) Migrastatin Ether (ME) at a dose of 10 mg/kg, 40 mg/kg or 200 mg/kg per mouse; (2) Carboxymethyl-ME (CME) at a dose of 12 mg/kg or 49 mg/kg; or (3) DMSO vehicle control (n≧5 mice per group). Drug treatment was delivered by intraperitoneal injection every 3 days starting from day −1 after cell injection to day 55. During this time, the tumor burden and metastatic spread were monitored by bioluminescence imaging (BLI) at day 14, 23, 30, 40, and 50. At day 55 (endpoint), the mice were killed and the metastatic spread of tumor cells to the lungs, liver, heart, kidneys, and spleen was assessed by ex-vivo BLI on the surgically resected organs.
On the technique in general: A xenograft is tissue or cells of one species grown in another, often human tumour cells in immunodeficient mice.

The subject of data set [2] is lung cancer (H299-GL, H522-GL, H647-GL, A549-GL, H1993, H1075-GL, H1373-GL H1703 cells). Nature of the data set: toxicity by alamarBlue, lung cancer cell lines. The class given is cell-based. The note with it: mean of 8 cell lines. On the procedure: Dilutions of DMSO without compound were used as a control. After 18 hrs or 2 days, the cultures were pulsed with 6 μl of alamarBlue® (Invitrogen Inc. Grand Island, N.Y.) and incubated overnight. The alamarBlue® provides a cell growth indicator based on detection of metabolic activity. The assay system incorporates an oxidation-reduction indicator that both fluoresces and changes color in response to chemical reduction of growth medium resulting from cell growth. The fluorescence intensity was measured using a Synergy H1 Microplate Reader (Biotek Inc, Winooski, VT) and a dose-response curve established for IC50 determination.
On the technique in general: Alamar Blue is a resazurin reagent that responds to reducing activity.

In data set [3] the test system is A549, H1975, and H299 cancer cells. The data set can be described thus: transwell migration, panel of NSCLC lines. The class given is cell-based, human. As to conditions: for IC50: Homo sapiens, range over A549, H1975 and H299, read-out: IC50 values across cell lines; for toxicity and effects on cell proliferation: in the millimolar range. The protocol: Migration assay: Cancer cell chemotaxis was performed towards a serum gradient in a modified Boyden chamber consisting of a cell culture insert (6.4 mm diameter, 8-μm pore polyethylene tetraphtalate membrane, [Becton Dickenson]) seated in each well of a 24-well companion plate (Becton Dickinson). Briefly, cancer cells were grown as subconfluent monolayer cultures then starved for 36 hours in serum-free M5 medium. After detachment and dissociation with 5 mM EDTA, single-cell suspensions were prepared by filtration through a 35 μm mesh cell strainer (Becton Dickinson). Cells were counted and a total of 10^5 cells suspended in serum-free medium were seeded into the upper chamber of an insert, then positioned in a 24-well plate, containing medium with or without 10% serum. When used, drugs or DMSO (vehicle) were added to the medium at 0.2% in both chambers. Migration assays were carried out for 12 hours in a humidified incubator at 37° C. with 5% CO2. Cells were then fixed with 3.7% formaldehyde, permeabilized with ice cold methanol and stained with a 0.2% Crystal violet solution. Non-migratory cells on the upper side of the insert were removed with a cotton swab. For quantification, three randomly selected fields on the lower side of the insert were photographed at 4× and 20× magnification using computer-assisted microscopy, and analyzed with CellProfiler2.0 cell image analysis software). The migration in response to the test condition was calculated relative to the DMSO vehicle control.
This assay provided reproducibly robust data, allowing dose-response studies to be carried out to determine the half maximal inhibitory concentration (IC50). […] Because we noticed a mild toxicity and effects on cell proliferation in the millimolar range, experiments with CME and ME at 1 mM or more were not included for the IC50 calculation.
Lung Cancer cell lines chemotaxis was performed in cell culture inserts after serum starvation and an overnight preincubation with an incremental logarithmic scale of drug concentration (ME and CME from 10^−3 to 10^−10M). Cancer cell migration in response to a serum gradient was measured after a 12 hour-long incubation in presence of different concentrations of ME or CME in both upper and lower chamber (three wells at each dose). Cells were then fixed and stained with Crystal violet, and photographed. […] Data are expressed as the mean+/−SEM of three independent experiments. Each experiment was performed in triplicate.

For the compound `CO[C@H]1/C=C/CCCCCOC/C(C)=C\[C@@H](C)[C@@H]1OCC(=O)O` [CME, Carboxymethyl migraether], the “Inhibition factor (IF) of overall metastasis” value in data set [1] (12 mg/kg i.p. every 3 days, day 55) is reported as 99.3%; in data set [1] (49 mg/kg i.p. every 3 days, day 55), 99.8%. The toxicity result in data set [1] (12 mg/kg or 49 mg/kg cohorts) was “no toxicity was observed”. For the same compound, the “tumor growth kinetics at the primary site of injection” value in data set [1] was “did not significantly affect”. Moreover, the “potency relative to ME in inhibiting in vivo metastasis” value in data set [1] (at the lowest dosage level) is on record as “approximately 4 times”. The “Estimated lethal doses (LD50)” value in data set [2] (18 h exposure) is 553.9 µM; in data set [2] (48 h exposure), 697.9 µM. Besides, in data set [3], the IC50 is 0.5 to 5 µM. Further, the “toxicity and effects on cell proliferation” value in data set [3] is on record as “mild toxicity”.

In the case of `CO[C@H]1/C=C/CCCCCOC/C(C)=C\[C@@H](C)[C@@H]1O` [ME, migrastatin ether], the “deaths prior to the study endpoint” value is recorded as 2 mice in data set [1] (10 mg/kg group), 2 mice in data set [1] (40 mg/kg group) and 3 mice in data set [1] (200 mg/kg group). Moreover, the “Inhibition factor (IF) of overall metastasis” value in data set [1] (10 mg/kg i.p. every 3 days, day 55) came to 96.2%; in data set [1] (40 mg/kg i.p. every 3 days, day 55), 99.1%; in data set [1] (200 mg/kg i.p. every 3 days, day 55, 2 surviving mice) it was 99.8%. For the same compound, the “tumor growth kinetics at the primary site of injection” value in data set [1] is given as “did not significantly affect”. Further, the “Estimated lethal doses (LD50)” value in data set [2] (48 h exposure) was 639.8 µM. Moreover, in data set [3], the 50% inhibitory concentration (IC50) fell in the range of 1.5 to 8.2 µM. Moreover, the “toxicity and effects on cell proliferation” value in data set [3] is given as “mild toxicity”.

The values are drawn from patent publication US9303009B2, “Migrastatins and uses thereof” (Sloan-Kettering Institute for Cancer Research, priority 2011, dated 2016).
